# Test results: BindingDB's records for patent US20230322822 (Chengdu Di''Ao Jiuhong Pharmaceutical Factory, 2023)
# Key:
# [1] = biological target: Epidermal growth factor receptor (Homo sapiens, UniProt P00533); assay: EGFR kinase Enzymatic Activity Test 1
# Protocol: (§1) To assess the effect of compounds on the activity of wild-type and mutant EGFR kinases, kinase activity was tested by measuring ATP consumption in an enzymatic reaction using an ADP-Glo (Promega Corporation) kit. Samples to be tested were dissolved in DMSO and diluted in a gradient. In a microplate, an EGFR kinase, a reaction buffer (containing Tris-HCl with a pH of 7.5, MgCl2, DTT and BSA), a kinase substrate Poly(Glu4, Tyr1) and a sample (a total volume of 20 μL per well) were added per well, while a blank control (no enzyme and sample) and a negative control (no sample) were set up; incubated for 15 minutes at 23° C.; added with 5 μL of ATP, and reacted at 23° C. for 60 minutes; added with ADP-Glo Reagent, and continuously reacted for 40 minutes at room temperature to inactivate the redundant ATP; then, added with a Kinase Detection Reagent, and reacted at room temperature for 30 minutes, then the chemiluminescence intensity L of each well was measured. […] IC50 values were calculated according to the above calculation using 4Parameter Logistic Model in XLfit software.
# [2] = biological target: Epidermal growth factor receptor [T790M,L858R] (Homo sapiens, UniProt P00533, L858R/T790M); assay: EGFR kinase Enzymatic Activity Test 1
# Protocol: as §1
# Chain of Epidermal growth factor receptor [T790M,L858R] (P00533 25-1210 T790M/L858R limits assumed): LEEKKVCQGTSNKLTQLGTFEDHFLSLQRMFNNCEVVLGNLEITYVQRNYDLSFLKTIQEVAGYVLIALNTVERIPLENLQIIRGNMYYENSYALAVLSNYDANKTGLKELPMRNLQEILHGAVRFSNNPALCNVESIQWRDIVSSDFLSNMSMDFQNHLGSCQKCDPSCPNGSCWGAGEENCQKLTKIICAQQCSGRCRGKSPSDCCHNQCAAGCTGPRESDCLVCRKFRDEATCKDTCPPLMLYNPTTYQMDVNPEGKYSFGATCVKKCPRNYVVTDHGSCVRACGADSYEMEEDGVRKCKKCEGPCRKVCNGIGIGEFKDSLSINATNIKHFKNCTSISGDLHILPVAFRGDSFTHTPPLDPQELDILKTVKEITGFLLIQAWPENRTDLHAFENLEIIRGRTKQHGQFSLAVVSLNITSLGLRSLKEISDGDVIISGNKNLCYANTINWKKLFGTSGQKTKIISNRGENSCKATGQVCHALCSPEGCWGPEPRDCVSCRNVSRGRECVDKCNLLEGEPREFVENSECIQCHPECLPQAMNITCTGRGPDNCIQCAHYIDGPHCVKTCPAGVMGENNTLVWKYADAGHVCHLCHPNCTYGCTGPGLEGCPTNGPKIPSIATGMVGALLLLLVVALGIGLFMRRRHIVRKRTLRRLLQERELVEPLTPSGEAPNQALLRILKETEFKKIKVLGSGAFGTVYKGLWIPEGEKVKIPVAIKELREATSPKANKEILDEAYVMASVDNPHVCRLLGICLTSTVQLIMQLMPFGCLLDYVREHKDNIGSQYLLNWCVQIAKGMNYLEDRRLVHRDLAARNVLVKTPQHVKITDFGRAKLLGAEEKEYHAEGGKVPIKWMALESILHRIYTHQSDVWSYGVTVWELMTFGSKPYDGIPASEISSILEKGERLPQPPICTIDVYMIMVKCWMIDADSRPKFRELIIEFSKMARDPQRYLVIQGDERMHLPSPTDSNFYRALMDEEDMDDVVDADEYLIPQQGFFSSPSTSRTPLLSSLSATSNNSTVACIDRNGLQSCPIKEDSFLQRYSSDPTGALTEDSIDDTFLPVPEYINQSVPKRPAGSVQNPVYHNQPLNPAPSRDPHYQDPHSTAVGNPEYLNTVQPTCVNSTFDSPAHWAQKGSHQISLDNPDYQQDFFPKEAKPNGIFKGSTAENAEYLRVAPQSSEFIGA
# Chain of Epidermal growth factor receptor (P00533 whole entry): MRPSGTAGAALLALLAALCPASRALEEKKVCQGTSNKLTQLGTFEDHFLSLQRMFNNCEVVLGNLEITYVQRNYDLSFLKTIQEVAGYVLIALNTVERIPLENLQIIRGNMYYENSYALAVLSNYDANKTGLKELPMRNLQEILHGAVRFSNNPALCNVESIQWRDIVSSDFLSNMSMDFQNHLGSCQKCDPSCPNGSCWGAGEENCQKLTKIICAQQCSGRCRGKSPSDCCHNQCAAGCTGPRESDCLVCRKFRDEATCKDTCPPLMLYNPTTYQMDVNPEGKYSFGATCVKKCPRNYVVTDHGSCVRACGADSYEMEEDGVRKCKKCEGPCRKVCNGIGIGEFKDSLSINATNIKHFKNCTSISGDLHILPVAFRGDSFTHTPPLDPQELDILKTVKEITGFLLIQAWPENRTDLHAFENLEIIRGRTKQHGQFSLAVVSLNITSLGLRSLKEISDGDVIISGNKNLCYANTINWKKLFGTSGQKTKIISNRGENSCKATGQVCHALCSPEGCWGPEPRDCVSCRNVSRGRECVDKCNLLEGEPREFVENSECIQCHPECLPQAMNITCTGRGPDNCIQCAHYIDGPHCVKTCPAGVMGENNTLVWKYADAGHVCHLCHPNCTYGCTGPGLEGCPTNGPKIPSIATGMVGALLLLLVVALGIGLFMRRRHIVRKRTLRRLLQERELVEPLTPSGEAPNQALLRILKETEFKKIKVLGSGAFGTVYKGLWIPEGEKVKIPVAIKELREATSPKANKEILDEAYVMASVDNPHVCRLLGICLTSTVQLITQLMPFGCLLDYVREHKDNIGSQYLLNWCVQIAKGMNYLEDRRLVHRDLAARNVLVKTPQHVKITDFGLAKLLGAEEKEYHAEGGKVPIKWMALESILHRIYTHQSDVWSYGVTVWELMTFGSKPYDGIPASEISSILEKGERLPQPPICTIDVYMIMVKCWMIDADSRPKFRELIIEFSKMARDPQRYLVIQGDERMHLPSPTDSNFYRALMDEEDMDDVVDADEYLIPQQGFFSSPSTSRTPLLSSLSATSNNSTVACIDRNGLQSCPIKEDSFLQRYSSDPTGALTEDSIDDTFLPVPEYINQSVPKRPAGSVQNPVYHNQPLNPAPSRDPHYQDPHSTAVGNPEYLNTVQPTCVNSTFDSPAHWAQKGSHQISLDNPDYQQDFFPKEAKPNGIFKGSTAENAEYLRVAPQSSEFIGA
smiles,measurement,setting,value
"COc1cc(N2CCC(N3CCN(C)CC3)CC2)c(C)cc1Nc1ncc(Br)c(Nc2ccc(C)cc2P(C)(C)=O)n1 [US20230322822, Compound 2]",IC50,[1],169 nM
same,IC50,[2],24.8 nM
